Broadly, the bioavailability is the share of a dose that reaches the circulation, judged against a reference dose that is usually intravenous. By Cmax is commonly meant the maximum level reached in the sampled fluid or tissue. The term MRT last denotes a mean duration of stay, worked out from the concentration-time curve. Usually AUC(0-t) stands for exposure summed from dosing to a finite time, without extrapolation to infinity. As usually defined, the Tmax is the time from dosing to the highest level.

What all share (type): ADME, organism-based
Data set [1] in a line: Bioavailability in BALB/c mouse at 5 mg/kg, iv measured upto 24 hrs by LC-MS/MS analysis. The note with it: in vivo.
Data set [2] in a line: Apparent volume of distribution in BALB/c mouse at 10 mg/kg, po measured upto 24 hrs by LC-MS/MS analysis. As to conditions: in vivo.
The nature of data set [3]: Cmax in BALB/c mouse at 5 mg/kg, iv measured upto 24 hrs by LC-MS/MS analysis. As to conditions: in vivo.
A short description of data set [4]: MRT(0 to t) in BALB/c mouse at 5 mg/kg, iv measured upto 24 hrs by LC-MS/MS analysis. As to conditions: in vivo.
Data set [5] in a line: AUC(0 to t) in BALB/c mouse at 10 mg/kg, po measured upto 24 hrs by LC-MS/MS analysis. As to conditions: in vivo.
Data set [6] in a line: Apparent volume of distribution in BALB/c mouse at 5 mg/kg, iv measured upto 24 hrs by LC-MS/MS analysis. As to conditions: in vivo, read-out: Vz.
Data set [7] in a line: Tmax in BALB/c mouse at 10 mg/kg, po measured upto 24 hrs by LC-MS/MS analysis. As to conditions: in vivo.
The nature of data set [8]: Cmax in BALB/c mouse at 10 mg/kg, po measured upto 24 hrs by LC-MS/MS analysis. The note with it: in vivo.
A short description of data set [9]: MRT(0 to t) in BALB/c mouse at 10 mg/kg, po measured upto 24 hrs by LC-MS/MS analysis. The note with it: in vivo.
The nature of data set [10]: Tmax in BALB/c mouse at 5 mg/kg, iv measured upto 24 hrs by LC-MS/MS analysis. The note with it: in vivo.
Data set [11] can be described thus: AUC(0 to t) in BALB/c mouse at 5 mg/kg, iv measured upto 24 hrs by LC-MS/MS analysis. As to conditions: in vivo.

Each structure is given as a SMILES string.

In data set [1], `Cn1cnc(-c2ccc(F)cc2)c1-c1ccc2ncc(C#CC(C)(C)O)cc2c1` yielded a bioavailability of 84.6%. In addition, the Vz in [2] is 1.41 L/kg. For the same molecule, the Cmax in data set [3] was 6340 ng/mL; in [8], 5250 ng/mL. For the same molecule, the MRT last at 24 h in [4] is 4.46 h; in data set [9] it was 6.11 h. Further, the area under the curve AUC(0-t) at 24 h in [5] was 45700 ng·h/mL; in [11], 27000 ng·h/mL. The Vd in data set [6] came to 0.846 L/kg. The Tmax came to 1.17 h in data set [7] and 4.98 min in data set [10].
